In US9693997B2, “Antiviral compounds” (priority 2013, dated 2017):
Structures can show the parent of a compound that is named as a salt.

Key:
[1] = system: Pseudotyped HCV GT1b particles (HCVpp), entry into Huh7-high CD81 cells; experiment: microbe, parasite or virus in culture; assay type: cell-based, HCV GT1b Con1 strain; conditions: Hepatitis C virus, GT1B, 72 h, read-out: HCVpp GT-1b (EC50, μM)
[2] = system: pseudotyped VSV G particles (VSVpp) in Huh7-high CD81 cells; experiment: microbe, parasite or virus in culture; assay type: cell-based, vesicular stomatitis virus; conditions: Vesicular stomatitis virus, 72 h, read-out: VSVpp (EC50, μM)

SMILES | EC50 [1] [µM] | EC50 [2] [µM]
CC(C)CCS(=O)(=O)c1ccc(-c2c(Cl)cc(Nc3n[nH]c(N)n3)cc2C(F)(F)F)cc1 [Compound 61, N*3*-[6-Chloro-4′-(3-methyl-butane-1-sulfonyl)-2-trifluoromethyl-biphenyl-4-yl]-1H-1,2,4-triazole-3,5-diamine] | 0.013 | > 10
Nc1nc(Nc2cc(Cl)c(-c3cccc(C(F)(F)F)c3)c(Cl)c2)n[nH]1 [Compound 108, N-3-(2,6-Dichloro-3′-trifluoromethyl-biphenyl-4-yl)-1H-[1,2,4]triazole-3,5-diamine] | 0.014 | 29
CC1(O)CCN(S(=O)(=O)c2ccc(-c3c(Cl)cc(Nc4n[nH]c(N)n4)cc3C(F)(F)F)cc2)C1 (centres unmarked) [Compound 68, 1-[4′-(5-Amino-1H-[1,2,4]triazol-3-ylamino)-6′-chloro-2′-trifluoromethyl-biphenyl-4-sulfonyl]-3-methyl-pyrrolidin-3-ol] | 0.05 | 8.73
CC(C)(C)CCNCCOc1ccc(-c2c(Cl)cc(Nc3n[nH]c(N)n3)cc2C(F)(F)F)cc1 [Compound 136, N*3*-{6-Chloro-4′-[2-(3,3-dimethyl-butylamino)-ethoxy]-2-trifluoromethyl-biphenyl-4-yl}-1H-[1,2,4]triazole-3,5-diamine hydrochloride] | 0.005 | 3.08
CN(CCOc1ccc(-c2c(Cl)cc(Nc3n[nH]c(N)n3)cc2C(F)(F)F)cc1)C(=O)OC(C)(C)C [Compound 125, {2-[4′-(5-Amino-1H-[1,2,4]triazol-3-ylamino)-6′-chloro-2′-trifluoromethyl-biphenyl-4-yloxy]-ethyl}-methyl-carbamic acid tert-butyl ester] | 0.096 | > 10
Nc1n[nH]c(Nc2cc(F)c(-c3ccc(S(=O)(=O)N4CCOCC4)cc3)c(F)c2)n1 [Compound 77, N^5-(2,6-difluoro-4′-(morpholine-4-sulfonyl)biphenyl-4-yl)-1H-[1,2,4]-triazole-3,5-diamine] | 0.19 | 24.7
COc1ccc(-c2c(F)cc(Nc3nc(N)n[nH]3)cc2C(F)(F)F)cc1 [Compound 86, N^5-[6-Fluoro-4′-methoxy-2-trifluoromethylbiphenyl-4-yl]-1H-[1,2,4]-triazole-3,5-diamine] | 0.525 | 8.87
CC(C)(C)OC(=O)N1CCN(S(=O)(=O)c2ccc(-c3c(Cl)cc(Nc4n[nH]c(N)n4)cc3C(F)(F)F)cc2)CC1 [Compound 16, 4-[4′-(5-Amino-1H-[1,2,4]triazol-3-ylamino)-2′-chloro-6′-trifluoromethyl-biphenyl-4-sulfonyl]-piperazine-1-carboxylic acid tert-butyl ester] | 0.03 | > 10
Nc1n[nH]c(Nc2cc(F)c(-c3ccc(F)cc3)c(C(F)(F)F)c2)n1 [Compound 245, N^5-[6,4′-Difluoro-2-trifluoromethylbiphenyl-4-yl]-1H-[1,2,4]-triazole-3,5-diamine] | 1.47 | 17.1
Nc1nc(Nc2cc(Cl)c(-c3ccc(OC[C@H]4CCCN4)cc3)c(Cl)c2)n[nH]1 [Compound 272, N*3*-[2,6-Dichloro-4′-((R)-1-pyrrolidin-2-ylmethoxy)-biphenyl-4-yl]-1H-[1,2,4]triazole-3,5-diamine] | 0.147 | 4.49
COc1ccc(-c2c(Cl)cc(Nc3n[nH]c(N)n3)cc2C(F)(F)F)cc1S(=O)(=O)NCCO [Compound 175, 4′-(5-amino-1H-1,2,4-triazol-3-ylamino)-2′-chloro-N-(2-hydroxyethyl)-4-methoxy-6′-(trifluoromethyl)biphenyl-3-sulfonamide] | 0.018 | > 10
CC(C)(C)CCN1CCC(CS(=O)(=O)c2ccc(-c3c(Cl)cc(Nc4n[nH]c(N)n4)cc3C(F)(F)F)cc2)CC1 [Compound 57, N*3*-{2-Chloro-4′-[1-(3,3-dimethyl-butyl)-piperidin-4-ylmethanesulfonyl]-6-trifluoromethyl-biphenyl-4-yl}-1H-[1,2,4]triazole-3,5-diamine; hydrochloride] | 0.049 | 2.45
Nc1nc(Nc2cc(Cl)c(-c3ccc4c(c3)NC(=O)CO4)c(C(F)(F)F)c2)n[nH]1 [Compound 47, 6-[4-(5-Amino-1H-[1,2,4]triazol-3-ylamino)-2-chloro-6-trifluoromethyl-phenyl]-4H-benzo[1,4]oxazin-3-one] | 0.544 | 0.82
CNCCNS(=O)(=O)c1ccc(-c2c(Cl)cc(Nc3n[nH]c(N)n3)cc2C(F)(F)F)cc1 [Compound 213, 4′-(5-amino-1H-1,2,4-triazol-3-ylamino)-2′-chloro-N-(2-(methylamino)ethyl)-6′-(trifluoromethyl)biphenyl-4-sulfonamide hydrochloride] | 0.062 | > 10
Nc1nc(Nc2ccc(-c3c(Cl)cccc3Cl)cc2)n[nH]1 [Compound 258] | 20.2 | 26.2
Nc1nc(Nc2cc(Cl)c(-c3ccc(N4CCCC4=O)cc3)c(Cl)c2)n[nH]1 [Compound 43, 1-[4′-(5-Amino-1H-[1,2,4]triazol-3-ylamino)-2′,6′-dichloro-biphenyl-4-yl]-pyrrolidin-2-one] | 0.169 | 15.4
Nc1nc(Nc2cc(Cl)c(-c3ccc(S(=O)(=O)CCO)cc3)c(C(F)(F)F)c2)n[nH]1 [Compound 162, 2-[4′-(5-Amino-1H-[1,2,4]triazol-3-ylamino)-2′-chloro-6′-trifluoromethyl-biphenyl-4-sulfonyl]-ethanol] | 0.126 | > 10
N#Cc1cccc(-c2c(F)cc(Nc3nc(N)n[nH]3)cc2C(F)(F)F)c1 [Compound 89, 4′-(5-Amino-2H-[1,2,4]-triazol-3-ylamino)-6′-fluoro-2′-trifluoromethyl-biphenyl-3-carbonitrile] | 25.1 | 33.3
Nc1n[nH]c(Nc2cc(F)c(-c3ccc(S(=O)(=O)C(F)(F)F)cc3)c(C(F)(F)F)c2)n1 [Compound 88, N^5-[6-Fluoro-4′-trifluoromethanesulfonyl-2-trifluoromethylbiphenyl-4-yl]-1H-[1,2,4]-triazole-3,5-diamine] | 1.95 | 25.2
Nc1nc(Nc2cc(Cl)c(-c3ccc(S(=O)(=O)C4CC4)cc3)c(C(F)(F)F)c2)n[nH]1 [Compound 188, N3-(2-chloro-4′-(cyclopropylsulfonyl)-6-(trifluoromethyl)biphenyl-4-yl)-1H-1,2,4-triazole-3,5-diamine] | 0.089 | 0.09
CC(C)(C)N1CC(OC(=O)Nc2ccc(-c3c(Cl)cc(Nc4n[nH]c(N)n4)cc3C(F)(F)F)cc2)C1 [Compound 236, [4′-(5-amino-1H-[1,2,4]triazol-3-ylamino)-2′-chloro-6′-trifluoromethyl-biphenyl-4-yl]-carbamic acid 1-tert-butyl-azetidin-3-yl ester] | 0.045 | > 10
CC(C)(C)NS(=O)(=O)c1cccc(-c2c(Cl)cc(Nc3n[nH]c(N)n3)cc2C(F)(F)F)c1 [Compound 176, 4′-(5-amino-1H-1,2,4-triazol-3-ylamino)-N-tert-butyl-2′-chloro-6′-(trifluoromethyl)biphenyl-3-sulfonamide] | 0.019 | 9.6
